# Source: patent US4212862A, “O,O-Diaryl-1-acyloxy-2,2,2-trichloroethylphosphonates and fungicides based thereon” (priority 1978, dated 1980)
# Where “and” joins values, the source holds several entries; their conditions need not be identical. Equal entries are not always repeated.
# Key:
# [1] = system: stalk rust of wheat (Puccinia graminis); assay type: in vivo; conditions: in vivo
# [2] = system: stalk rust (Puccinia graminis f. tritici); assay type: in vivo; conditions: in vivo
# [3] = Acute peroral toxicity for warm-blooded animals (LD50, LD90); assay type: in vivo, white mice; conditions: mouse, in vivo, po, Table 2; peroral; read-out: LD50 for white mice
# Procedure: Toxicity (LD50) was evaluated on males and females of white mice with peroral administration of the compounds. A portion of the test compound was mixed with the emulsifier Twin-20 and diluted with distilled water to the required working concentration. Administration of the preparation was effected by means of a metal probe and syringe directly into the stomach of test animals 2-3 hours after feeding. The tests were performed using several doses, 6 animals per each dose. Subsequent observation was effected for two weeks.
smiles,measurement,setting,value
CCCC(=O)OC(C(Cl)(Cl)Cl)P(=O)(Oc1ccccc1)Oc1ccccc1 (stereo not drawn) [III],Percentage of injury lowered,[1],68% and 51%
same,"Percentage of plants injured with rust, 1-st evaluation",[2],0.5%
same,"Percentage of plants injured with rust, 2-nd evaluation",[2],7.0%
same,"Weight of 1,000 grains",[2],18.4 g
same,Yield,[2],14.00 c/ha
same,LD50 at 336 h,[3],> 500 mg/kg
CCC(=O)OC(C(Cl)(Cl)Cl)P(=O)(Oc1ccccc1)Oc1ccccc1 (stereo not drawn) [II],Percentage of injury lowered,[1],78% and 63%
same,"Percentage of plants injured with rust, 1-st evaluation",[2],0.5%
same,"Percentage of plants injured with rust, 2-nd evaluation",[2],11.0%
same,"Weight of 1,000 grains",[2],16.5 g
same,Yield,[2],11.50 c/ha
same,LD50 at 336 h,[3],> 1000 mg/kg
CCCCCCC(=O)OC(C(Cl)(Cl)Cl)P(=O)(Oc1ccccc1)Oc1ccccc1 (stereo not drawn) [IV],Percentage of injury lowered,[1],98% and 74%
same,"Percentage of plants injured with rust, 1-st evaluation",[2],0.5%
same,"Percentage of plants injured with rust, 2-nd evaluation",[2],6.5%
same,"Weight of 1,000 grains",[2],23.8 g
same,Yield,[2],20.00 c/ha
same,LD50 at 336 h,[3],> 1000 mg/kg
CCCC(=O)OC(C(Cl)(Cl)Cl)P(=O)(Oc1ccccc1C)Oc1ccccc1C (stereo not drawn) [IX],LD50 at 336 h,[3],> 1000 mg/kg
CCC(=O)OC(C(Cl)(Cl)Cl)P(=O)(Oc1ccccc1C)Oc1ccccc1C (stereo not drawn) [VIII],Percentage of injury lowered,[1],96% and 76%
same,"Percentage of plants injured with rust, 1-st evaluation",[2],0.5%
same,"Percentage of plants injured with rust, 2-nd evaluation",[2],8.5%
same,"Weight of 1,000 grains",[2],15.3 g
same,Yield,[2],10.15 c/ha
same,LD50 at 336 h,[3],> 1000 mg/kg
CC(=O)OC(C(Cl)(Cl)Cl)P(=O)(Oc1ccccc1C)Oc1ccccc1C (stereo not drawn) [VII],Percentage of injury lowered,[1],83% and 77%
same,"Percentage of plants injured with rust, 1-st evaluation",[2],0.5%
same,"Percentage of plants injured with rust, 2-nd evaluation",[2],9.0%
same,"Weight of 1,000 grains",[2],15.1 g
same,Yield,[2],10.10 c/ha
same,LD50 at 336 h,[3],> 1000 mg/kg
O=C(OC(C(Cl)(Cl)Cl)P(=O)(Oc1ccccc1)Oc1ccccc1)c1ccccc1 (stereo not drawn) [VI],Percentage of injury lowered,[1],99% and 98%
same,"Percentage of plants injured with rust, 1-st evaluation",[2],0.5%
same,"Percentage of plants injured with rust, 2-nd evaluation",[2],8.5%
same,"Weight of 1,000 grains",[2],16.4 g
same,Yield,[2],11.30 c/ha
same,LD50 at 336 h,[3],> 1000 mg/kg
CCCCC(CC)C(=O)OC(C(Cl)(Cl)Cl)P(=O)(Oc1ccccc1)Oc1ccccc1 (stereo not drawn) [V],Percentage of injury lowered,[1],74% and 61%
same,"Percentage of plants injured with rust, 1-st evaluation",[2],0.5%
same,"Percentage of plants injured with rust, 2-nd evaluation",[2],13.0%
same,"Weight of 1,000 grains",[2],14.8 g
same,Yield,[2],9.50 c/ha
same,LD50 at 336 h,[3],> 1000 mg/kg
CCC(=O)OC(C(Cl)(Cl)Cl)P(=O)(Oc1cccc(C)c1)Oc1cccc(C)c1 (stereo not drawn) [XIII],Percentage of injury lowered,[1],98% and 85%
same,"Percentage of plants injured with rust, 1-st evaluation",[2],0.5%
same,"Percentage of plants injured with rust, 2-nd evaluation",[2],10.0%
same,"Weight of 1,000 grains",[2],16.9 g
same,Yield,[2],12.05 c/ha
same,LD50 at 336 h,[3],> 1000 mg/kg
CC(=O)OC(C(Cl)(Cl)Cl)P(=O)(Oc1cccc(C)c1)Oc1cccc(C)c1 (stereo not drawn) [XII],Percentage of injury lowered,[1],86% and 68%
same,"Percentage of plants injured with rust, 1-st evaluation",[2],0.5%
same,"Percentage of plants injured with rust, 2-nd evaluation",[2],8.0%
same,"Weight of 1,000 grains",[2],16.1 g
same,Yield,[2],11.00 c/ha
same,LD50 at 336 h,[3],> 1000 mg/kg
CCCC(=O)OC(C(Cl)(Cl)Cl)P(=O)(Oc1cccc(C)c1)Oc1cccc(C)c1 (stereo not drawn) [XIV],Percentage of injury lowered,[1],99% and 92%
same,"Percentage of plants injured with rust, 1-st evaluation",[2],0.5%
same,"Percentage of plants injured with rust, 2-nd evaluation",[2],7.0%
same,"Weight of 1,000 grains",[2],17.2 g
same,Yield,[2],12.00 c/ha
same,LD50 at 336 h,[3],> 1000 mg/kg
CCC(=O)OC(C(Cl)(Cl)Cl)P(=O)(Oc1ccc(C)cc1)Oc1ccc(C)cc1 (stereo not drawn) [XIX],Percentage of injury lowered,[1],100% and 66%
same,"Percentage of plants injured with rust, 1-st evaluation",[2],0.5%
same,"Percentage of plants injured with rust, 2-nd evaluation",[2],8.0%
same,"Weight of 1,000 grains",[2],18.9 g
same,Yield,[2],14.60 c/ha
same,LD50 at 336 h,[3],> 1000 mg/kg
Cc1ccccc1OP(=O)(Oc1ccccc1C)C(OC(=O)c1ccccc1)C(Cl)(Cl)Cl (stereo not drawn) [XI],"Percentage of plants injured with rust, 1-st evaluation",[2],0.5%
same,"Percentage of plants injured with rust, 2-nd evaluation",[2],8.0%
same,"Weight of 1,000 grains",[2],17.8 g
same,Yield,[2],12.40 c/ha
same,LD50 at 336 h,[3],> 1000 mg/kg
CCC(=O)OC(C(Cl)(Cl)Cl)P(=O)(Oc1cccc2ccccc12)Oc1cccc2ccccc12 (stereo not drawn) [XLIII],Percentage of injury lowered,[1],89% and 72%
same,LD50 at 336 h,[3],> 1000 mg/kg
CC(=O)OC(C(Cl)(Cl)Cl)P(=O)(Oc1cccc2ccccc12)Oc1cccc2ccccc12 (stereo not drawn) [XLII],Percentage of injury lowered,[1],92% and 87%
same,LD50 at 336 h,[3],> 1000 mg/kg
CCCC(=O)OC(C(Cl)(Cl)Cl)P(=O)(Oc1cccc2ccccc12)Oc1cccc2ccccc12 (stereo not drawn) [XLIV],Percentage of injury lowered,[1],71%
same,LD50 at 336 h,[3],> 1000 mg/kg
CCC(=O)OC(C(Cl)(Cl)Cl)P(=O)(Oc1ccc(Cl)c(C)c1)Oc1ccc(Cl)c(C)c1 (stereo not drawn) [XLI],Percentage of injury lowered,[1],91% and 53%
same,LD50 at 336 h,[3],> 1000 mg/kg
CCCC(=O)OC(C(Cl)(Cl)Cl)P(=O)(Oc1ccc(-c2ccccc2)cc1)Oc1ccc(-c2ccccc2)cc1 (stereo not drawn) [XLVIII],Percentage of injury lowered,[1],67%
same,LD50 at 336 h,[3],> 1000 mg/kg
CCC(=O)OC(C(Cl)(Cl)Cl)P(=O)(Oc1ccc(-c2ccccc2)cc1)Oc1ccc(-c2ccccc2)cc1 (stereo not drawn) [XLVII],LD50 at 336 h,[3],> 1000 mg/kg
CC(=O)OC(C(Cl)(Cl)Cl)P(=O)(Oc1ccc(-c2ccccc2)cc1)Oc1ccc(-c2ccccc2)cc1 (stereo not drawn) [XLVI],LD50 at 336 h,[3],> 1000 mg/kg
